Measured values as given in patent publication US20240389591A1, “CRYSTALLINE FORMS OF METHYL 2-[2-[2-BROMO-4-FLUORO-5-[3-METHYL-2,6-DIOXO-4-(TRIFLUOROMETHYL)PYRIMIDIN-1-YL]PHENOXY]PHENOXY]-2-METHOXY-ACETATE” (BASF SE, priority 2021, published 2024).

Assays:
Erigeron canadensis = assay: Greenhouse herbicidal activity, post-emergence treatment; assay type: in vivo; conditions: assessment 20 DAT, aqueous SC 8.33 w/v %, scale 0-100
Description: (§1) The culture containers used were plastic flowerpots containing loamy sand with approximately 3.0% of humus as the substrate. The seeds of the test plants were sown separately for each species.
(§2) For the post-emergence treatment, the test plants were first grown to a height of 3 to 15 cm, depending on the plant habit, and only then treated with the active ingredients which had been suspended or emulsified in water. For this purpose, the test plants were either sown directly and grown in the same containers, or they were first grown separately as seedlings and transplanted into the test containers a few days prior to treatment.
(§3) Depending on the species, the test plants were kept at 10-25° C. or 20-35° C., respectively. The test period extended over 2 to 4 weeks. During this time, the test plants were tended, and their response to the individual treatments was evaluated.
(§4) Evaluation was carried out using a scale from 0 to 100. 100 means no emergence of the test plants, or complete destruction of at least the aerial moieties, and 0 means no damage, or normal course of growth. A good herbicidal activity is given at values of at least 70 and a very good herbicidal activity is given at values of at least 85.
(§5) The abovementioned methods were used to compare, in a greenhouse test, form A according to the invention and, as comparison the compound of formula (I) in amorphous form, in each case formulated as aqueous suspension concentrate (SC; 8.33 w/v %).

Lolium multiflorum = assay: as above; assay type: in vivo; conditions: assessment 20 DAT, aqueous SC 8.33 w/v %, scale 0-100
Description: as §1, §2, §3, §4, §5

Compound | Damage [%] (Erigeron canadensis; 2 g/ha a.i.) | Damage [%] (Erigeron canadensis; 4 g/ha a.i.) | Damage [%] (Lolium multiflorum; 2 g/ha a.i.) | Damage [%] (Lolium multiflorum; 4 g/ha a.i.) | Damage [%] (Lolium multiflorum; 8 g/ha a.i.) | Damage [%] (Lolium multiflorum; 16 g/ha a.i.)
COC(=O)C(OC)Oc1ccccc1Oc1cc(-n2c(=O)cc(C(F)(F)F)n(C)c2=O)c(F)cc1Br (stereo not drawn) [Form A, methyl 2-[2-[2-bromo-4-fluoro-5-[3-methyl-2,6-dioxo-4-(trifluoromethyl)pyrimidin-1-yl]phenoxy]phenoxy]-2-methoxy-acetate] | 60 | 100 | 50 | 70 | 90 | 90
COC(=O)C(OC)Oc1ccccc1Oc1cc(-n2c(=O)cc(C(F)(F)F)n(C)c2=O)c(F)cc1Br (stereo not drawn) [amorphous, methyl 2-[2-[2-bromo-4-fluoro-5-[3-methyl-2,6-dioxo-4-(trifluoromethyl)pyrimidin-1-yl]phenoxy]phenoxy]-2-methoxy-acetate] | 30 | 70 | 15 | 25 | 75 | 80
